Laboratory results as given in PubChem BioAssay AID652230 (The Scripps Research Institute Molecular Screening Center, 2013).
Calls of active or inactive are those of the source.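 How the source made its calls: active means IC50 below 10 µM for blocking the phosphatase PP5; inactive means IC50 at or above 10 µM.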

Target: Serine/threonine-protein phosphatase 5 (Homo sapiens) (UniProt P53041)
Assay: PP5 catalytic domain inhibition, concentration series – biochemical, fluorescence, OMFP substrate, powder samples, set 2, selectivity assay for PP1 inhibitor project, dose response (AID 652230)
Settings: purified PP5c, OMFP dephosphorylation

Chain of Serine/threonine-protein phosphatase 5 (Homo sapiens) (P53041 whole entry, looked up, the tested form may be a part): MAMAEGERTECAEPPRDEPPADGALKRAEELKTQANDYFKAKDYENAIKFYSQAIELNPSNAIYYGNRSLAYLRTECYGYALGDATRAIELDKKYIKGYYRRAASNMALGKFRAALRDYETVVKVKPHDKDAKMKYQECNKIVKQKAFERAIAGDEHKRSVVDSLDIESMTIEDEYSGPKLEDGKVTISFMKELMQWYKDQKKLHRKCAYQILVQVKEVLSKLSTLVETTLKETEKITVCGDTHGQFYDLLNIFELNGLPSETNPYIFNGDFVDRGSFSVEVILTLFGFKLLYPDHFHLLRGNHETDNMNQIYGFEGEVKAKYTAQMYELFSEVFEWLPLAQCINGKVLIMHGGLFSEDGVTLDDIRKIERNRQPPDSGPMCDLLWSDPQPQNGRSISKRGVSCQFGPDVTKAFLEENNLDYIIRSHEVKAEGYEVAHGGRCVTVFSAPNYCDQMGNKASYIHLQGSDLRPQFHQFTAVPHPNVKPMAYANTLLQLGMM

Structure (SMILES)	IC50
CN1CCN([C@H](c2ncccn2)c2ccc3cccnc3c2O)CC1	inactive
CN1CCN([C@@H](c2ncccn2)c2ccc3cccnc3c2O)CC1	inactive
